This passage reports EC50 results from patent US10336735B2, “Small molecule inhibitors of fibrosis” (THE CALIFORNIA INSTITUTE FOR BIOMEDICAL RESEARCH, priority 2014, dated 2019).

In the experiment the test system is primary human lung fibroblasts and primary rodent HSCs. The experiment is described as follows: High content imaging assay (α-SMA staining, cell morphology) of fibroblast to myofibroblast transdifferentiation, confirmed by Western blot and RT-PCR. Particulars: Homo sapiens, Fibroblast; imaging and western based activity. In a few lines: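 Primary human lung fibroblasts and primary rodent HSCs were serum-starved and then TGF-β-treated to drive transdifferentiation in 384-well format, with SB-431542 as positive control. Readouts were α-SMA immunofluorescence and cell morphology by high-content imaging, confirmed by Western blot and RT-PCR in 4-day, 4-point dose-response assays; EC50 values are graded.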
The term EC50 denotes the midpoint of the concentration-response curve. Read a low EC50 as greater potency. As to `CC(C)N1CCN(c2ccc(N3CCN(c4ccc(OC[C@H]5OC[C@](Cn6nccn6)(c6ccc(F)cc6F)O5)cc4)CC3)cc2)C1=O` (racemic) [Compound 203, cis (±)-1-(4-(4-(4-((4-((2H-1,2,3-triazol-2-yl)methyl)-4-(2,4-difluorophenyl)-1,3-dioxolan-2-yl)methoxy)phenyl)piperazin-1-yl)phenyl)-3-isopropylimidazolidin-2-one], the concentration for a half-maximal effect (EC50) is > 30 µM. Turning to `CCC(C)n1ncn(-c2ccc(N3CCN(c4ccc(OC[C@@H]5CO[C@@](Cn6nccn6)(c6cc(Cl)ccc6Br)O5)cc4)CC3)cc2)c1=O` (some centres unmarked) [Compound 35], the 50% effective concentration (EC50) was 0.5 to 5 µM. In the case of `CCC(C)n1ncn(-c2ccc(N3CCN(c4ccc(OC[C@@H]5CO[C@](Cc6ccnnc6)(c6ccccc6C)O5)cc4)CC3)cc2)c1=O` (some centres unmarked) [Compound 116] it was < 0.5 µM; in that of `CC[C@H](C)n1ncn(-c2ccc(N3CCN(c4ccc(OC[C@H]5CO[C@](Cn6nccn6)(c6ccccc6)O5)cc4)CC3)cc2)c1=O` [Compound 183, 4-(4-(4-(4-(((2R,4S)-2-((2H-1,2,3-triazol-2-yl)methyl)-2-phenyl-1,3-dioxolan-4-yl)methoxy)phenyl)piperazin-1-yl)phenyl)-(S)-1-sec-butyl-1H-1,2,4-triazol-5(4H)-one], < 0.5 µM.

As for `CCC(C)n1ncn(-c2ccc(N3CCN(c4ccc(OC[C@@H]5CO[C@@](Cn6nccn6)(c6ccccc6)O5)cc4)CC3C)cc2)c1=O` (some centres unmarked) [Compound 73], the EC50 lay within 5 to 30 µM. To `CCC(C)n1ncn(-c2ccc(N3CCN(c4ccc(OC[C@@H]5CO[C@@](Cn6cccn6)(c6ccc(C)cc6)O5)cc4)CC3)cc2)c1=O` (some centres unmarked) [Compound 97] belongs 5 to 30 µM; to `CCC(C)n1ncn(-c2ccc(OC[C@@H]3CO[C@@](Cn4nccn4)(c4ccc(Cl)cc4Cl)O3)cc2)c1=O` (some centres unmarked) [Compound 6], > 30 µM.

For the molecule `CCC(C)n1ncn(-c2ccc(N3CCN(c4ccc(OC[C@@H]5CO[C@](Cc6ccnnc6)(c6cc(Cl)cc(Cl)c6)O5)cc4)CC3)cc2)c1=O` (some centres unmarked) [Compound 122], the EC50 is < 0.5 µM. To `CCC(C)n1ncn(-c2ccc(N3CCN(c4ccc(OC[C@@H]5CO[C@@](CN6CCOCC6)(c6ccc(Cl)cc6Cl)O5)cc4)CC3)cc2)c1=O` (some centres unmarked) [Compound 44] belongs > 30 µM; to `CCC(C)n1cnn(-c2ccc(N3CCN(c4ccc(OC[C@@H]5CO[C@@](Cc6ccnnc6)(c6ccccc6)O5)cc4)CC3)cc2)c1=O` (mixture of isomers) [Compound 102], 0.5 to 5 µM. To `CCC(C)n1ncn(-c2ccc(N3CCN(c4ccc(OC[C@@H]5CO[C@@](Cn6nccn6)(c6ccccc6)O5)c(S(C)(=O)=O)c4)CC3)cc2)c1=O` (some centres unmarked) [Compound 64] belongs 0.5 to 5 µM; to `CCC(C)n1ncn(-c2ccc(N3CCN(c4ccc(OC[C@@H]5CO[C@](Cc6ccnnc6)(c6ccccc6Cl)O5)cc4)CC3)cc2)c1=O` (some centres unmarked) [Compound 105], < 0.5 µM; to `CCC(C)n1ncn(-c2ccc(N3CCN(c4ccc(OC[C@@H]5CO[C@@](Cc6ccnnc6)(c6cccc(C#N)c6)O5)cc4)CC3)cc2)c1=O` (some centres unmarked) [Compound 130], 0.5 to 5 µM.

On to `O=c1n(-c2ccc(N3CCN(c4ccc(OC[C@@H]5CO[C@@](Cn6nccn6)(c6ccc(Cl)cc6Cl)O5)cc4)CC3)cc2)cnn1CC1CCCC1` [Compound 14], for which the EC50 was < 0.5 µM. `CCC(C)n1ncn(-c2ccc(-c3ccc(OC[C@@H]4CO[C@@](Cn5nccn5)(c5ccc(Cl)cc5Cl)O4)cc3)cc2)c1=O` (some centres unmarked) [Compound 8]: the EC50 is > 30 µM. Regarding `CCC(C)n1ncn(-c2ccc(N3CCN(c4ccc(OC[C@H]5CO[C@](Cn6nccn6)(c6ccccc6)C5)cc4C#N)CC3)cc2)c1=O` (some centres unmarked) [Compound 149], the EC50 was > 30 µM.

As for `CCC(C)n1ncn(-c2ccc(N3CCN(c4ccc(OC[C@@H]5CO[C@@](Cn6nccn6)(c6ccc(Cl)cc6Cl)O5)cc4)CC3)cc2)c1=S` (some centres unmarked) [Compound 75], the EC50 is > 30 µM. `O=c1n(-c2ccc(N3CCN(c4ccc(OC[C@@H]5CO[C@@](Cn6nccn6)(c6ccccc6)O5)cc4)CC3)cc2)cnn1CC1CCCC1` [Compound 20] gave an EC50 of 5 to 30 µM. In the case of `CCC(C)n1ncn(-c2ccc(N3CCN(c4ccc(OC[C@@H]5CO[C@](Cc6ccnnc6)(c6ccc(OC(F)(F)F)cc6)O5)cc4)CC3)cc2)c1=O` (some centres unmarked) [Compound 115], the concentration for a half-maximal effect (EC50) was 0.5 to 5 µM. Consider `CCC(C)n1ncn(-c2ccc(N3CCN(c4ccc(OC[C@@H]5CO[C@@](Cn6cccn6)(c6ccccc6)O5)cc4)CC3)cc2)c1=O` (some centres unmarked) [Compound 48], for which the EC50 is < 0.5 µM. Turning to `CCC(CC)n1ncn(-c2ccc(N3CCN(c4ccc(OC[C@@H]5CO[C@@](Cn6nccn6)(c6ccc(Cl)cc6Cl)O5)cc4C#N)CC3)cc2)c1=O` [Compound 152], the EC50 lay in the range of 5 to 30 µM. In the case of `CCC(C)n1ncn(-c2ccc(N3CCN(c4ccc(OC[C@@H]5CO[C@@](Cn6cccn6)(c6ccc(S(C)(=O)=O)cc6)O5)cc4)CC3)cc2)c1=O` (some centres unmarked) [Compound 98] it was 0.5 to 5 µM; in that of `CCC(C)n1ncn(-c2ccc(N3CCN(c4ccc(OC[C@@H]5CO[C@@](Cc6ccnnc6)(c6ccc(OC(F)(F)F)cc6)O5)cc4)CC3)cc2)c1=O` (some centres unmarked) [Compound 135], < 0.5 µM; in that of `CCC(C)n1cnn(-c2ccc(N3CCN(c4ccc(OC[C@@H]5CO[C@@](Cc6ccccc6)(c6ccccc6)O5)cc4)CC3)cc2)c1=O` (some centres unmarked) [Compound 150], > 30 µM. In the case of `CCC(C)n1ncn(-c2ccc(N3CCN(c4ccc(OC[C@@H]5CO[C@](Cn6nccn6)(c6ccccc6)O5)cc4)CC3)cc2)c1=O` (some centres unmarked) [Compound 186] it was 5 to 30 µM.

Consider `CCC(C)n1ncn(-c2ccc(N3CCN(c4ccc(OC[C@@H]5CO[C@@](Cn6cccn6)(c6cccc(C)c6)O5)cc4)CC3)cc2)c1=O` (some centres unmarked) [Compound 96], for which the concentration giving a half-maximal response (EC50) was < 0.5 µM. To `Cc1cc(C#N)ccc1[C@]1(Cn2nccn2)OC[C@@H](COc2ccc(N3CCN(c4ccc(-n5cnn(CC6CCCC6)c5=O)cc4)CC3)cc2)O1` [Compound 25] belongs 0.5 to 5 µM; to `CC[C@@H](C)n1ncn(-c2ccc(N3CCN(c4ccc(OC[C@H]5CO[C@](Cn6cccn6)(c6ccc(C#N)cc6C)O5)cc4)CC3)cc2)c1=O` [Compound 175], 5 to 30 µM; to `CCC(C)n1ncn(-c2ccc(N3CCN(c4ccc(OC[C@@H]5CO[C@@](Cc6ccnnc6)(c6ccccc6C)O5)cc4)CC3)cc2)c1=O` (some centres unmarked) [Compound 136], 0.5 to 5 µM.

With `CCC(C)n1ncn(-c2ccc(N3CCN(c4ccc(OC[C@@H]5CO[C@@](Cn6nccn6)(c6ccccc6)O5)cc4C#N)CC3)cc2)c1=O` (some centres unmarked) [Compound 66], the EC50 was < 0.5 µM. Turning to `CC(C)N1CCN(c2ccc(OC[C@@H]3CO[C@@](Cn4nccn4)(c4ccc(Cl)cc4Cl)O3)cc2)CC1` [Compound 5], the concentration for a half-maximal effect (EC50) fell in the range of 5 to 30 µM. In turn, `CC1(CCn2ncn(-c3ccc(N4CCN(c5ccc(OC[C@@H]6CO[C@@](Cn7cncn7)(c7ccc(Br)cc7)O6)cc5)CC4)cc3)c2=O)N=N1` [Compound 151] had an EC50 of 0.5 to 5 µM. To `CCC(C)n1ncn(-c2ccc(N3CCN(c4ccc(OC[C@@H]5CO[C@](Cc6ccnnc6)(c6ccc(C#N)cc6)O5)cc4)CC3)cc2)c1=O` (some centres unmarked) [Compound 111] belongs 5 to 30 µM; to `CCC(C)n1ncn(-c2ccc(N3CCN(c4cccc(OC[C@@H]5CO[C@@](Cn6nccn6)(c6ccc(Cl)cc6Cl)O5)c4)CC3)cc2)c1=O` (some centres unmarked) [Compound 78], 0.5 to 5 µM. To `CCC(C)n1ncn(-c2ccc(N3CCN(c4ccc(OC[C@@H]5CO[C@@](Cn6nccn6)(c6ccc(Cl)cc6Cl)O5)cc4CN)CC3)cc2)c1=O` (some centres unmarked) [Compound 55] belongs < 0.5 µM.
